# Laboratory results reported in patent US20040014779A1, “Methods and compositions related to IRM compounds and toll-like recptor pathways” (3M Innovative Properties Company, priority 2001, published 2004).
# How the values were obtained:
# TLR7 [1] = assay: TNF-α production by THP-1 cells transfected with TLR7DN vs vector control; format: cell-based, human
# Source text: The human TLR7 dominant negative construct was generated in a manner similar to that used to generate the human TLR6 dominant negative construct. The proline to histidine mutation for human was introduced at amino acid 932 along with a Bam HI restriction enzyme site (5′ sense: SEQ ID NO 9; 5′ antisense: SEQ ID NO 10; 3′ sense: SEQ ID NO 11; 3′ antisense: SEQ ID NO 12).
# The amplified 5′ and 3′ sections of each human dominant negative TLR was inserted into pCR-Blunt II-TOPO for sequence verification. The 5′ and 3′ sections were joined together when subcloned into pIRES (Clontech, Palo Alto, Calif.) for expression in mammalian cells.
# THP-1 cells (maintained at cell number less than 1×10^6 cells/ml) were co-transfected with the plamid vector containing either the TLR6DN or TLR7DN construct and with a murine H2K^k plasmid (Miltenyi Biotec Inc., Auburn, Calif.) in a 4:1 ratio of TLR plasmid to H2K^k plasmid. Transfection of THP-1 cells was carried out using the transfection reagent FuGENE 6 (Roche Diagnostics Corp., Indianapolis, Ind.) according to the manufacturer's specifications. […]
# TNF-α levels were measured with a commercial Human TNF-α ELISA kit (Biosource International, Inc., Camarillo, Calif.) according to the manufacturer's specifications. […]
# TLR7 [2] = molecular target: T1, TLR7 (Mus musculus, UniProt P58681); assay: IRM-stimulated TNF-α production by RAW 264.7 cells overexpressing TLR7; format: cell-based, murine
# T1 construct: expressed in transfected cells; host or cells: RAW 264.7 (pIRES vector)
# T1 sequence (P58681 27-1050): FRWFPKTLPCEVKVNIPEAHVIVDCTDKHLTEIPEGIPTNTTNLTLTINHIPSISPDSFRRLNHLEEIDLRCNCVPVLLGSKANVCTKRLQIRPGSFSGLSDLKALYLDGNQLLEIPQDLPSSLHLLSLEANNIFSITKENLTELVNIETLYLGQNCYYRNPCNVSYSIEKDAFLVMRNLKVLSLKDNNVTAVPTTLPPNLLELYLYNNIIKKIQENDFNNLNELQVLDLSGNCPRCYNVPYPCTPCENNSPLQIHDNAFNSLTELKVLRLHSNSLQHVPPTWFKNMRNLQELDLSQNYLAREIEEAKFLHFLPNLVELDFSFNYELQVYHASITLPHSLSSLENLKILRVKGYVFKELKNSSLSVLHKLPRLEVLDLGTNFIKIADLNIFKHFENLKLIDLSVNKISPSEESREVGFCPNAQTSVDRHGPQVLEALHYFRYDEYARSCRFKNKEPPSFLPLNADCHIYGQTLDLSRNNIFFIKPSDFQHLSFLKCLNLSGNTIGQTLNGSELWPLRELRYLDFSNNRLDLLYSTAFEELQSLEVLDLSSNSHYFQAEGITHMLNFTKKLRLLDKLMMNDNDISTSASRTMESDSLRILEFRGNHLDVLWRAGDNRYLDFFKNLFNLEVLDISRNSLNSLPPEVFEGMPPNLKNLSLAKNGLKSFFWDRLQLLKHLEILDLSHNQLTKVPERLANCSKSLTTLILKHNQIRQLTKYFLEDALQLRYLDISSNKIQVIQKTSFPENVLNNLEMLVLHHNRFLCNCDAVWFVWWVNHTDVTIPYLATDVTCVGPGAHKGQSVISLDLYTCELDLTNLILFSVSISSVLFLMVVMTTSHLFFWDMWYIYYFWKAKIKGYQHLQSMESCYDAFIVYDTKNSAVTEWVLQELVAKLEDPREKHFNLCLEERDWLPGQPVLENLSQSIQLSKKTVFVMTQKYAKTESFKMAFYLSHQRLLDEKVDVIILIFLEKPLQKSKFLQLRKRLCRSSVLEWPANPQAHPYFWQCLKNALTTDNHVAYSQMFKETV
# Source text: The murine TLR wild-type vectors were generated by PCR amplification from RAW 264.7 cell cDNA with TLR6 specific primers (sense primer: SEQ ID NO 13; antisense primer: SEQ ID NO 14) or TLR7 specific primers (sense primer: SEQ ID NO 15; antisense primer: SEQ ID NO 16) by Pfu Turbo DNA polymerase kit (Stratagene, La Jolla, Calif.). The PCR products were inserted into pCR-Blunt II-TOPO for sequence verification and then subcloned into pIRES (BD Biosciences Clontech, Palo Alto, Calif.) for expression in mammalian cells.
# THP-1 cells or RAW 264.7 cells were cultured and transfected with the wild type TLR 6 or wild type TLR 7 plasmids described above. The transfections were performed as in Example 1 with a 4:1 ratio of wild-type TLR to H2K plasmid (THP-1 cells) or CD4 (RAW 264.7 cells).
# RAW 264.7 cells were stimulated with various concentrations of resiquimod and analyzed as described in Example 1. Results are provided in Table 4 and are expressed as fold increase in TNF-α production as compared to control transfected RAW 264.7 cells.
compound,measurement,setting,value
"CCOCc1nc2c(N)nc3ccccc3c2n1CC(C)(C)O [Resiquimod, 4-amino-2-ethoxymethyl-α,α-dimethyl-1H-imidazo[4,5-c]quinoline-1-ethanol]",Effect of TLR7DN on stimulus-induced TNF-α production (in words),TLR7 [1]; compared to control vector,inhibited
same,TLR7DN % inhibition of TNF-α production,"TLR7 [1]; stimulus 3 μM, 18 hours, relative to vector control",55.3%
same,"Fold increase in TNF-α production over control, TLR7","TLR7 [2]; RAW 264.7 overexpressing TLR7, 0.0004 μM",14.8 fold
same,"Fold increase in TNF-α production over control, TLR7","TLR7 [2]; RAW 264.7 overexpressing TLR7, 0.001 μM",8.9 fold
same,"Fold increase in TNF-α production over control, TLR7","TLR7 [2]; RAW 264.7 overexpressing TLR7, 0.004 μM",5.8 fold
same,"Fold increase in TNF-α production over control, TLR7","TLR7 [2]; RAW 264.7 overexpressing TLR7, 0.012 μM",3.8 fold
same,"Fold increase in TNF-α production over control, TLR7","TLR7 [2]; RAW 264.7 overexpressing TLR7, 0.037 μM",3.5 fold
same,"Fold increase in TNF-α production over control, TLR7","TLR7 [2]; RAW 264.7 overexpressing TLR7, 1 μM",1.3 fold
same,"Fold increase in TNF-α production over control, TLR7","TLR7 [2]; RAW 264.7 overexpressing TLR7, 3 μM",1.0 fold
same,"Fold increase in TNF-α production over control, TLR7","TLR7 [2]; RAW 264.7 overexpressing TLR7, 10 μM",1.5 fold
same,TLR7 agonist character (in words),TLR7 [2]; from TLR7 overexpression in RAW 264.7 cells,agonist
